Assay results from patent publication US12618846B2, “Method and device for imaging fluorescent proteins in near- and short-wave infrared” (HELMHOLTZ ZENTRUM MÜNCHEN—DEUTSCHES FORSCHUNGSZENTRUM FÜR …, priority 2019, dated 2026).

Tests used:
[1] = Absorptive and emissive properties of flavylium heptamethine dyes in dichloromethane; assay type: physicochemical
Text: As the highest energy absorber of the series, the 7-methoxy substituted dye 10 is ˜44 nm blue shifted from Flav7, with absorption at 984 nm, close to the 980 nm laser line, and emission at 1008 nm. […] The diphenylamino substituted 7 is ˜23 nm red-shifted compared to Flav7, while julolidine derivative 3 is red-shifted by ˜35 nm with absorption at 1061 nm and emission at 1088 nm. Due to its absorption maximum and high brightness (εmax), 3 was a promising candidate for SWIR imaging with 1064 nm excitation and was named Julo7. […] This increased understanding of the relationship between structural and absorption/emission wavelengths sets-up opportunities for predicting photophysical properties of the scaffold.
The absorption coefficients (ε) of the series vary from ˜110,000 to ˜240,000 M^−1cm^−1. […] The fluorescence quantum yields (φF) (relative measurements to IR-26=0.05%) remain rather constant, in the 0.4 to 0.6% range, despite red- or blue-shifted behavior, providing a platform for intensity-matched probes. […]
For excitation multiplexing, we are most interested in properties of the series of polymethine fluorophores when exited at 980 and 1064 nm. Thus, we calculated brightness (εA) values for each dye using the absorbance coefficient at the respective wavelengths. […]

[2] = Three-color excitation-multiplexed SWIR imaging of awake mouse; assay type: in vivo; details: 80 minutes after i.p. 10 micelles and i.v. 3 micelles and ICG; top-view
Text: To obtain real-time images in three colors, heptamethine 10 was encapsulated in PEG-coated micelles to impart water solubility. In vivo, we introduced 10 micelles by intraperitoneal injection, and 3 micelles followed by ICG by intravenous injection. […] After establishing both the technology and the molecular tools for multiplexed real-time observation of function in mice, the next goal was to enhance existing SWIR imaging applications.
Physiological properties such as heart-rate, respiratory rate, thermoregulation, metabolism, and the function of the central nervous system, are highly impacted by anesthesia. […] Due to frame rates which are faster than macroscopic movements in animals, the heart rate and respiratory rate in awake animals can be quantified. […] The method allows physiology to be monitored with minimal perturbation of the animal's usual environment. […] The real-time collection can be visualized by observing close time-points in which a continuous movement is monitored without visual aberrations (FIG. 16A). In addition to assessing natural physiology, these tools foreshadow more complex experiments in which the location of multiple probes could be monitored over long periods of time, non-invasively and without the need for anesthesia.

[3] = Two-color SWIR lymphatic imaging of narcotized mouse; assay type: in vivo; details: intradermally into footpads and base of tail, after 30 min
Text: The FIGS. 9A, 9B and 9C show merged frames representing the lymphatic system of a narcotized mouse in two-color real-time acquisition. With detector exposure time of 20 ms, a frame rate of 21 fps is achieved with the developed system. […] Then, Julo 7 micelles have been injected intravenously. The lymphatic functional imaging is later enhanced by the assignment of two distinct colors.
Light Source (785 nm laser & 1064 nm laser sequentially triggered, pulse length=21 ms)→Collimator→Mirror→1100 nm Short-pass Filter→Engineered Diffuser→Sample. The arrows represent the light path. Accordingly, the light path has been set up as follows: from Light Source (785 nm laser & 1064 nm laser sequentially triggered, pulse length=21 ms) to Collimator to Mirror to 1100 nm Short-pass Filter to Engineered Diffuser to Sample.
Sample→3×f=500 mm C-Coated lenses→Silver Mirror→1000 nm Long-pass Filter→2×f=200 mm C-coated lenses→InGaAs Detector. The arrows represent the light path. Accordingly, the light path has been set up as follows: from Sample to 3×f=500 mm C-Coated lenses to Silver Mirror to 1000 nm Long-pass Filter to 2×f=200 mm C-coated lenses to InGaAs Detector.
Sample: ICG (aqueous, 13 nmol intradermally [footpads and base of tail]) and Julo7 (micelles, 70 nmol intravenously).

[4] = stated as known property; cited from earlier work
[5] = reference value used for relative measurements; cited from earlier work

In the case of `CN(C)c1ccc2c(c1)OC(c1ccccc1)=C/C2=C\C=C1/CCCC(/C=C/c2cc(-c3ccccc3)[o+]c3cc(N(C)C)ccc23)=C1Cl` [dye 1], the “λmax,abs (absorption)” value [1] is reported as 1027 nm and the “λmax,em (emission)” value [1] is reported as 1053 nm.
In the case of `CC1(C)C(/C=C/C=C/C=C/C=C2\N(CCCCS(=O)(=O)[O-])c3ccc4ccccc4c3C2(C)C)=[N+](CCCCS(=O)(=O)[O-])c2ccc3ccccc3c21.[Na+]` [ICG, indocyanine green], the “location of probe in awake mouse” value [2] is given as “exclusively in the liver”, the “conduction through the lymphatic vessels” value [3] is given as “efficiently conducted through the lymphatic vessels” and the clearance route [4] is given as “clears efficiently and exclusively from the liver”.
For `ClC1=C(/C=C/c2cc(-c3ccccc3)[s+]c3ccccc23)CCC/C1=C\C=C1/C=C(c2ccccc2)Sc2ccccc21.[O-][Cl+3]([O-])([O-])[O-]` [IR-26], the “fluorescence quantum yield of reference standard” value [5] is listed as 0.05%.
